{
  "source": "paper PMC12116762",
  "about": "“Topobexin targets the Topoisomerase II ATPase domain for beta isoform-selective inhibition and anthracycline cardioprotection” (Nature Communications, 2025)",
  "type_in_all_cases": "biochemical",
  "key": {"[1]": {"biological_target": "T1, recombinant human TOP2B (Homo sapiens, UniProt Q02880)", "T1 construct": "Using recombinant full-length human TOP2A and TOP2B enzymes; YFP (N, cleaved yes); made in house; host or cells: HEK293F", "T1 sequence (Q02880 1-1621 isoform Q02880-2)": "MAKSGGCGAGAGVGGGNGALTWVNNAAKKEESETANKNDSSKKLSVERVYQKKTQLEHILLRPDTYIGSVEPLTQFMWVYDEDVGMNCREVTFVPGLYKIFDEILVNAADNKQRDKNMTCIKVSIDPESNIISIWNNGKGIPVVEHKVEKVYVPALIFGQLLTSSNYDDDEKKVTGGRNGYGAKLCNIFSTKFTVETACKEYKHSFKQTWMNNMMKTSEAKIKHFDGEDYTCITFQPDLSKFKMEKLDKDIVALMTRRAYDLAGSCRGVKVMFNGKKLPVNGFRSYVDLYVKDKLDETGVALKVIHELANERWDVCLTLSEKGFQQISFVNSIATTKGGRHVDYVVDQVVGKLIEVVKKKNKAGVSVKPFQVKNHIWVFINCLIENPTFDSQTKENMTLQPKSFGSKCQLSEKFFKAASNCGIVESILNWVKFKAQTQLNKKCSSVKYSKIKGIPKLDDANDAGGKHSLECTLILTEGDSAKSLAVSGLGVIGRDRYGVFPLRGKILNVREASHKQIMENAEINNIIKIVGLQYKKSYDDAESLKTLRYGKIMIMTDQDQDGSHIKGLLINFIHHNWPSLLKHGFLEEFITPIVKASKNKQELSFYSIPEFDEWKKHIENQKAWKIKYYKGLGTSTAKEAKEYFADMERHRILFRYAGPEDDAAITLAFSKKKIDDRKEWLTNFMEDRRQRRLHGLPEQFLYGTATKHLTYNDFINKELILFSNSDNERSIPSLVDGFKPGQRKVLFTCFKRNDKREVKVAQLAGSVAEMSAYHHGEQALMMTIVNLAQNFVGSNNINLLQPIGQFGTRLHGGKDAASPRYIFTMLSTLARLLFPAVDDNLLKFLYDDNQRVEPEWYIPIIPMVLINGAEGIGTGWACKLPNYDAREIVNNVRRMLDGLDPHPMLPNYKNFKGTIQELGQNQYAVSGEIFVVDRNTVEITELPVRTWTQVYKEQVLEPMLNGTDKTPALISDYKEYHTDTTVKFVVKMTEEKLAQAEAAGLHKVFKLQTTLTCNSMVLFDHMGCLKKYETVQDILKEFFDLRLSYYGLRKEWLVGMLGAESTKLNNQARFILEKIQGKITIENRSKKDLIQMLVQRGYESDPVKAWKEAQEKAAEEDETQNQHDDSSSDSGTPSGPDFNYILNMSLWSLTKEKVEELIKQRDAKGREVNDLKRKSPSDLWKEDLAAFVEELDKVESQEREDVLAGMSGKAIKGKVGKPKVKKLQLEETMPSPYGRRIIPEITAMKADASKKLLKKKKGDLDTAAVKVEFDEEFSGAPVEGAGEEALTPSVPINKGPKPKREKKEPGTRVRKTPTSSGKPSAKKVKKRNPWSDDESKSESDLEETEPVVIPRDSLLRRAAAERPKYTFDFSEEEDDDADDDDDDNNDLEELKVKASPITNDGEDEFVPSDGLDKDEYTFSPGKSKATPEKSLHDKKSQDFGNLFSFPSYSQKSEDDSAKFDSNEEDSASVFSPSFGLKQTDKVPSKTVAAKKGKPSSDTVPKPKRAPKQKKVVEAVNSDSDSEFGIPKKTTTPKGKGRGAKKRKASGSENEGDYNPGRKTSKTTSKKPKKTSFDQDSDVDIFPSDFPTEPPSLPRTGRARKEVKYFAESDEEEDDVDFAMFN", "assay": "In vitro ATPase activity of TOP2B (coupled assay)", "protocol": "(§1) Topoisomerase proteins were diluted to 500 nM in storage buffer containing 20 mM HEPES pH 7.5, 500 mM NaCl, 0.5 mM TCEP, 25% glycerol, and 0.2 mg/mL BSA prior to use. A coupled assay was used to measure TOP2-catalyzed ATP hydrolysis in vitro[37] in Costar 96-well plates (Corning Incorporated). […] Reaction plates were pre-warmed to 30 °C for 5 min and ATP was added last to initiate the reaction. The reaction plate was placed in a CLARIOstarPlus plate reader (BMG Labtech) to measure NADH fluorescence at 30 °C every 30 s over 120 cycles using a 340-60 excitation filter and a 480-100 emission filter. Background fluorescence signals calculated from wells containing no ATP were subtracted from each measurement. The slope of NADH fluorescence decay in each well was calculated using the MARS software (BMG Labtech) and reaction wells that lacked topoisomerase inhibitor to account for photobleaching of NADH fluorescence served as background subtraction. Each presented data point was obtained from distinct sample. Values were normalized to untreated controls and plotted as a function of inhibitor concentration to determine IC50 values using Prism 9 (GraphPad)."}, "[2]": {"biological_target": "T2, recombinant human TOP2A (Homo sapiens, UniProt P11388)", "T2 construct": "Using recombinant full-length human TOP2A and TOP2B enzymes; YFP (N, cleaved yes); made in house; host or cells: HEK293F", "assay": "DNA decatenation assay, recombinant TOP2A", "conditions": "enzyme expressed in HEK293F, n=3", "protocol": "The human topoisomerase II decatenation assay was performed to determine the inhibitory effects of BNS-22 and new compounds as previously described with minor modifications[14],[36]. The assay was performed using recombinant human TOP2A or TOP2B generated using the HEK293F YFP-tag expression system as previously described[18],[19],[36]. Briefly, plasmids encoding YFP-TOP2A or YFP-TOP2B were transfected into HEK293F cells (Catalog number 11625019, Thermofisher Scientific), and TOP2 proteins were isolated from cell lysates by anti-YFP nanobody affinity chromatography. After elution by TEV protease cleavage, TOP2 proteins were FPLC purified by sequential cation exchange and size exclusion chromatography. Plasmid encoding TOP2B C88Y was generated by round-the-horn PCR mutagenesis and the sequence was verified by full-plasmid sequencing. Purified TOP2 proteins were stored in a storage buffer containing 20 mM HEPES pH 7.5, 500 mM NaCl, 0.5 mM TCEP, 25% (v/v) glycerol at -80 °C. For decatenation assays, purified TOP2 proteins were incubated with 200 ng kDNA (Topogen) in a reaction buffer containing 50 mM Tris−HCl (pH 8), 100 mM NaCl, 10 mM MgCl2, 0.5 mM DTT, 2 mM ATP, 0.1 mM tris(2-carboxyethyl)phosphine (TCEP), 5% (v/v) glycerol, 70 μg/mL bovine serum albumin, and 1/10 volume of each compound diluted in 10% DMSO (final DMSO concentration 1%) for 40 min at 37 °C. The reaction was then stopped by the addition of gel loading buffer (0.5 volumes of 60% (w/v) glycerol, 60 mM EDTA, 20 mM Tris−HCl (pH 7.5), 0.5 mg/mL bromophenol blue) and the samples were placed on ice. Reaction products were resolved by agarose gel electrophoresis in TBE buffer containing GelRed stain (Biotium). Gels were visualized using an iBright CL1000 (Thermofisher Scientific). Band intensities were quantified using FIJI, and the signal of the treated samples was normalized to the value of the control (untreated sample; 100%) present on the same gel. The normalized signal of three independent measurements was then expressed as mean ± SD. Each presented data point was obtained from distinct sample. Normalized values were plotted as a function of inhibitor concentration to determine IC50 values by nonlinear regression with variable slope using Prism 9 (GraphPad)."}, "[3]": {"biological_target": "T2, recombinant human TOP2A", "assay": "In vitro ATPase activity of TOP2A (coupled assay)", "protocol": "as §1"}},
  "note": "Where “and” joins values, the source holds several entries; their conditions need not be identical. Identical values can stand only once.",
  "data": [
    {"smiles": "CCCc1cc(=O)oc2c(C(=O)N3CCCc4ccccc43)c(OCCO)ccc12", "note": "[5c]", "values": [
      {"measurement": "remaining activity at 0.03125 µM", "setting": "[1]; 0.03125 μM, independent replicates, read-out: Normalized % TOP2B activity, ATPase", "result": 99.9, "unit": "%"},
      {"measurement": "remaining activity at 0.0625 µM", "setting": "[1]; 0.0625 μM, independent replicates, read-out: Normalized % TOP2B activity, ATPase", "result": 98.5, "unit": "%"},
      {"measurement": "remaining activity at 0.125 µM", "setting": "[1]; 0.125 μM, independent replicates, read-out: Normalized % TOP2B activity, ATPase", "result": 96.8, "unit": "%"},
      {"measurement": "remaining activity at 0.25 µM", "setting": "[1]; 0.25 μM, independent replicates, read-out: Normalized % TOP2B activity, ATPase", "result": 89.9, "unit": "%"},
      {"measurement": "remaining activity at 0.5 µM", "setting": "[1]; 0.5 μM, independent replicates, read-out: Normalized % TOP2B activity, ATPase", "result": 77, "unit": "%"},
      {"measurement": "remaining activity at 1 µM", "setting": "[1]; 1 μM, independent replicates, read-out: Normalized % TOP2B activity, ATPase", "result": 61.7, "unit": "%"},
      {"measurement": "remaining activity at 2 µM", "setting": "[1]; 2 μM, independent replicates, read-out: Normalized % TOP2B activity, ATPase", "result": 39.1, "unit": "%"},
      {"measurement": "remaining activity at 4 µM", "setting": "[1]; 4 μM, independent replicates, read-out: Normalized % TOP2B activity, ATPase", "result": 16.4, "unit": "%"},
      {"measurement": "remaining activity at 8 µM", "setting": "[1]; 8 μM, independent replicates, read-out: Normalized % TOP2B activity, ATPase", "result": 6.04, "unit": "%"},
      {"measurement": "SRbeta (SRTOP2B), TOP2 ATPase activity", "setting": "[1]; TOP2A IC50 divided by TOP2B IC50", "result": 3.8},
      {"measurement": "IC50", "setting": "[1]; n=3", "result": "400 nM and 410 nM"},
      {"measurement": "IC50", "setting": "[2]", "result": 3210, "unit": "nM"},
      {"measurement": "remaining activity at 0.03125 µM", "setting": "[3]; 0.03125 μM, independent replicates, read-out: Normalized % TOP2A activity, ATPase", "result": 97.4, "unit": "%"},
      {"measurement": "remaining activity at 0.0625 µM", "setting": "[3]; 0.0625 μM, independent replicates, read-out: Normalized % TOP2A activity, ATPase", "result": 86.8, "unit": "%"},
      {"measurement": "remaining activity at 0.125 µM", "setting": "[3]; 0.125 μM, independent replicates, read-out: Normalized % TOP2A activity, ATPase", "result": 79.9, "unit": "%"},
      {"measurement": "remaining activity at 0.25 µM", "setting": "[3]; 0.25 μM, independent replicates, read-out: Normalized % TOP2A activity, ATPase", "result": 62.7, "unit": "%"},
      {"measurement": "remaining activity at 0.5 µM", "setting": "[3]; 0.5 μM, independent replicates, read-out: Normalized % TOP2A activity, ATPase", "result": 45.9, "unit": "%"},
      {"measurement": "remaining activity at 1 µM", "setting": "[3]; 1 μM, independent replicates, read-out: Normalized % TOP2A activity, ATPase", "result": 25.8, "unit": "%"},
      {"measurement": "remaining activity at 2 µM", "setting": "[3]; 2 μM, independent replicates, read-out: Normalized % TOP2A activity, ATPase", "result": 11.6, "unit": "%"},
      {"measurement": "remaining activity at 4 µM", "setting": "[3]; 4 μM, independent replicates, read-out: Normalized % TOP2A activity, ATPase", "result": 6.58, "unit": "%"},
      {"measurement": "remaining activity at 8 µM", "setting": "[3]; 8 μM, independent replicates, read-out: Normalized % TOP2A activity, ATPase", "result": 3.17, "unit": "%"},
      {"measurement": "IC50", "setting": "[3]; n=3", "result": 1540, "unit": "nM"}
    ]}
  ]
}
